Three compounds from US20120220665A1, “Inhibiting Neurotransmitter Reuptake” (MAYO FOUNDATION FOR MEDICAL EDUCATION AND RESEARCH, priority 2009, published 2012) can be followed below.

The target in assay [1] is T1, human serotonin transporter (hSERT) (Homo sapiens, UniProt P31645).
T1 construct: expressed in transfected cells; host or cells: HEK-293, stably transfected; membranes
As to the kind of experiment: Human transporter radioligand binding, hSERT ([3H]citalopram, HEK-293 membranes). The following applies: HCl salts of test compounds; n ≥ 3, values marked b n = 1; read-out: Equilibrium Dissociation Constant (KD) for Transporter Binding (Geometric Mean; nM ± SEM) hSERT (S). On the procedure:
(§1) HEK-293 cells expressing the recombinant hSERT or hDAT were incubated with Dulbecco's modified Eagles medium (MEM) supplemented with 0.1 mM nonessential amino acid solution for MEM, 5% v/v fetal bovine serum and […] penicillin/streptomycin solution. Cells expressing the hNET transporter were incubated with Dulbecco's modified Eagles medium supplemented with 10% v/v fetal bovine serum and 100 U/mL penicillin/streptomycin solution and 2 mM L-glutamine. All cells were grown until 70-80% confluent on 175 cm^2 flasks in a humidified 10% CO2/90% air environment at 37° C., with the selecting antibiotic Geneticin sulfate at […]. The cells were incubated in 10% CO2, 90% air at 37° C. and 100% humidity.
(§2) Cell membranes containing hSERT, hNET, or hDAT were prepared from the cell lines to assay ligand binding for each of the transporters. […] The washed cells were incubated for 5 minutes at 37° C. in 10 mL solution 1 containing 100 mM ethylene glycol-bis N,N,N′,N′-tetraacetic acid (EGTA). The cells were then scraped from the flask surface with a rubber spatula, placed into a centrifuge tube, and collected by centrifugation at 1000×g for 5 minutes at 4° C. The resulting supernatant was discarded, and the cell pellet was resuspended in 0.5 to1.0 mL of the appropriate binding buffer (described below). The resuspended cell pellet was homogenized using a Polytron for 10 seconds at setting 6. The resulting homogenate was centrifuged at about 36,000×g for 10 minutes at 4° C. The supernatant was discarded, and the pellet was resuspended in the same volume of the appropriate binding buffer and centrifuged again. The supernatant was discarded, and the final pellet containing cell membranes was resuspended in the appropriate binding buffer and stored at −80° C. until use.
(§3) Radioligand binding assays for the indicated transporters were performed as follows. To assess binding to the cloned hSERT, cells expressing hSERT were homogenized in 50 mM Tris-HCl with 120 mM NaCl and 5 mM KCl (pH 7.4). The binding reaction consisted of 10 μg cell membrane protein, 1.0 nM [^3H]citalopram (citalopram, [N-methyl-^3H], specific activity 79.0 Ci/mmol; PerkinElmer, Boston, Mass.), and varying concentrations of either unlabeled citalopram or the test compound. A reaction to determine non-specific binding consisted of 10 μg cell membrane protein, 0.5 nM [^3H]citalopram, and 1 μM final concentration of unlabeled citalopram. The reactions were incubated at 22° C. for 60 minutes. Following incubation, the reactions were terminated by rapid filtration through separate GF/B filter strips pretreated with 0.2% polyethylenimine in a 48-well Brandel cell harvester. The cell membrane-containing filter strips were then rinsed five times with ice-cold 0.9% NaCl. After rinsing, individual filters were cut from the strip and placed in a scintillation vial containing 6.5 mL of Redi-Safe (Beckman-Coulter, Fullerton, Calif.). Radioactivity was measured with a Beckman liquid scintillation counter (LS 6000TA).
(§4) Following the radioligand binding assays, the data were analyzed using the
(§5) The program was modified to calculate the Hill coefficient (nH). Data are presented as geometric mean±S.E.M. of at least three independent experiments. One-component models and two-component models were compared using the root mean square error of each fit and the F test.

Assay [2] deals with hSERT (S), hNET (N), hDAT (D). Put plainly: Comparison of binding potency across the three human transporters. The conditions noted are these: for Potency (rank order of transporter binding): S = hSERT, N = hNET, D = hDAT, order by KD; for Potency Range: highest KD / lowest KD among hSERT, hNET, hDAT. Here is the method:
as §1, §2, §3
(§6) To assess binding to the cloned hNET, cells expressing hNET were homogenized in 50 mM Tris-HCl with 300 mM NaCl and 5 mM KCl (pH 7.4). The binding reaction consisted of 5 μg cell membrane protein, 0.5 nM [^3H]nisoxetine (nisoxetine HCl, [N-methyl-^3H], specific activity 82.0 Ci/mmol; Amersham, Arlington Hts., Ill.), and varying concentrations of either unlabeled nisoxetine or the test compound. A reaction to determine non-specific binding consisted of 5 μg cell membrane protein, 0.5 nM [^3H]nisoxetine, and 1 μM final concentration of unlabeled nisoxetine. The reactions were incubated at 22° C. for 60 minutes. Following incubation, the reactions were terminated by rapid filtration through separate GF/B filter strips pretreated with 0.2% polyethylenimine in a 48-well Brandel cell harvester. The cell membrane-containing filter strips were then rinsed five times with ice-cold 0.9% NaCl.

The target in assay [3] is T2, human norepinephrine transporter (hNET) (Homo sapiens, UniProt P23975).
T2 construct: expressed in transfected cells; host or cells: HEK-293, stably transfected; membranes
T2 sequence (P23975 whole entry): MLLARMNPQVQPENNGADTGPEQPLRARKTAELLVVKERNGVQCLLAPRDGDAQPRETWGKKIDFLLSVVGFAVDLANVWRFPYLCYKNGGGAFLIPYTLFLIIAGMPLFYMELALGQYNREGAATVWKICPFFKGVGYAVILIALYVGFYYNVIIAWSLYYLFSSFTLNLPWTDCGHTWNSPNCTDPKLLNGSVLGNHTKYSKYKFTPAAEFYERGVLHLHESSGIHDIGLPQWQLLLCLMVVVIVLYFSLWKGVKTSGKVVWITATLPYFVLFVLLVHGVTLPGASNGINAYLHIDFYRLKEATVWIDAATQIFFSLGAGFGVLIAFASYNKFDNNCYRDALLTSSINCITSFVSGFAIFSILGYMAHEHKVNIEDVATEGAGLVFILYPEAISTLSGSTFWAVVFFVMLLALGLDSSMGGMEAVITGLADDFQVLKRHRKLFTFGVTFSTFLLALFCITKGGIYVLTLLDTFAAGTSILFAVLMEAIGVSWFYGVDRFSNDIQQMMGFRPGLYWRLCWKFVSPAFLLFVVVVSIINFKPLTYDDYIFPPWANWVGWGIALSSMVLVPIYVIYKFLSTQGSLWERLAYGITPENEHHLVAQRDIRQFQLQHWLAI
As to the kind of experiment: Human transporter radioligand binding, hNET ([3H]nisoxetine, HEK-293 membranes). The conditions noted are these: HCl salts of test compounds; n ≥ 3, values marked b n = 1; read-out: Equilibrium Dissociation Constant (KD) for Transporter Binding (Geometric Mean; nM ± SEM) hNET (N). Here is the method:
as §1, §2
as §6, with “NaCl. After rinsing, individual filters were cut from the strip and placed in a scintillation vial containing 6.5 mL of Redi-Safe (Beckman-Coulter, Fullerton, Calif.). Radioactivity was measured with a Beckman liquid scintillation counter (LS 6000TA).” for “NaCl.”
as §4, §5

In assay [4] the target is T3, human dopamine transporter (hDAT) (Homo sapiens, UniProt Q01959).
T3 construct: expressed in transfected cells; host or cells: HEK-293, stably transfected; membranes
T3 sequence (Q01959 whole entry): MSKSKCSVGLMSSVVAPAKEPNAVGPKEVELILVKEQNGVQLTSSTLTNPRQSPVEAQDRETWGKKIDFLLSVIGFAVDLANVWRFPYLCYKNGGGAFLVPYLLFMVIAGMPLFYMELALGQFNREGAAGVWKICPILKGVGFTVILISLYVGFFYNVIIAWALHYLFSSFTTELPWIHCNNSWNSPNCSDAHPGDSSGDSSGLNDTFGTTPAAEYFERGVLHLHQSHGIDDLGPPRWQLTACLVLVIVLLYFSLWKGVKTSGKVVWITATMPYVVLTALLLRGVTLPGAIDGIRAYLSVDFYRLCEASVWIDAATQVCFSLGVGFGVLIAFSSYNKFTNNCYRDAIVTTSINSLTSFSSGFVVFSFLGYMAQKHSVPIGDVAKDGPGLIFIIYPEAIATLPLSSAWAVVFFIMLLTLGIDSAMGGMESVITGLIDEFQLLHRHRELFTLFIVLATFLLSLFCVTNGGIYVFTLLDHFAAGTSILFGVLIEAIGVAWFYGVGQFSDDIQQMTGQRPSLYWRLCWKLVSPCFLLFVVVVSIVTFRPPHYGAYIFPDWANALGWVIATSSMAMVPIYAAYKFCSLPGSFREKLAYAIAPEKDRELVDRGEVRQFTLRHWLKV
As to the kind of experiment: Human transporter radioligand binding, hDAT ([3H]WIN35428, HEK-293 membranes). The conditions noted are these: HCl salts of test compounds; n ≥ 3, values marked b n = 1; read-out: Equilibrium Dissociation Constant (KD) for Transporter Binding (Geometric Mean; nM ± SEM) hDAT (D). Here is the method:
as §1, §2
To assess binding to the cloned hDAT, cells expressing hDAT were homogenized in 50 mM Tris-HCl with 120 mM NaCl (pH 7.4). The binding reaction contained 15 μg cell membrane protein, 1 nM [^3H]WIN35428 (WIN35428, [N-methyl-^3H], specific activity 85.9 Ci/mmol; PerkinElmer, Boston, Mass.), and varying concentrations of either unlabeled WIN35428 or the test compound. A reaction to determine non-specific binding contained 15 μg cell membrane protein, 1 nM [^3H]WIN35428, and 10 μM final concentration of unlabeled WIN35428. The reactions were incubated at 22° C. for 1 hour. Following incubation, the reactions were terminated by rapid filtration through separate GF/B filter strips pretreated with 0.2% polyethylenimine in a 48-well Brandel cell harvester. The cell membrane-containing filter strips were then rinsed five times with ice-cold 0.9% NaCl. After rinsing, individual filters were cut from the strip and placed in a scintillation vial containing 6.5 mL of Redi-Safe (Beckman-Coulter, Fullerton, Calif.). Radioactivity was measured with a Beckman liquid scintillation counter (LS 6000TA).
as §4, §5

T1 sequence (P31645 whole entry): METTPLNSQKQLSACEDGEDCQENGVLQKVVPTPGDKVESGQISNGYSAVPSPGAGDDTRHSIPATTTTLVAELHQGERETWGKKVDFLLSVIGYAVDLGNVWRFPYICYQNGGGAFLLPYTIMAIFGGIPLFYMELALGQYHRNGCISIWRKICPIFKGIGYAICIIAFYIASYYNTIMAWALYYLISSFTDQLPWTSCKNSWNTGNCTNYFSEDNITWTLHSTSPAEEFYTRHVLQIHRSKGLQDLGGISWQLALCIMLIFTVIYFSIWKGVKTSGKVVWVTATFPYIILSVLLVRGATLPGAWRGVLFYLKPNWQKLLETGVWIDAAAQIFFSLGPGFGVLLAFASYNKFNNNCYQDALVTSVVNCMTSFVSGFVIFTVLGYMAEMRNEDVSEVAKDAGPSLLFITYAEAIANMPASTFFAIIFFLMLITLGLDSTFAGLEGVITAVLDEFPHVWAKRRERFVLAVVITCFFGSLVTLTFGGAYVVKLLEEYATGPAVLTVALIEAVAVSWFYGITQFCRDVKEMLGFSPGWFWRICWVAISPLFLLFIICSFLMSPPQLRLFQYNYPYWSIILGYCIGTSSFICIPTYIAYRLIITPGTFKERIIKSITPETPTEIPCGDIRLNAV

In general, Kd refers to the free concentration of one partner at which half of the binding sites on the other are occupied at equilibrium, for simple one-to-one binding. On to `CNC[C@H](c1ccc2ccccc2c1)[C@H](O)c1ccccc1` [PRC200-SS, (1S,2S)-3-(methylamino)-2-(naphthalen-2-yl)-1-phenylpropan-1-ol], for which the Kd came to 3.8 ± 0.3 nM in assay [1], 0.6 ± 0.2 nM in assay [3] and 27 ± 3 nM in assay [4]. In addition, in assay [2], the “Potency (rank order of transporter binding)” value is “N > S > D”. Also, the “Potency Range” value in assay [2] was 45.

As to `CNC[C@@H](c1ccccc1)[C@@H](O)c1ccc2ccccc2c1` [MCJ001-NA-Ph—OH-SS/RR, (1S,1R/2S,2R)-3-(methylamino)-1-(naphthalen-2-yl)-2-phenylpropan-1-ol], the Kd in assay [1] is 16 ± 2 nM; in assay [3], 1390 nM; in assay [4] it was 5800 ± 400 nM. For the same compound, the “Potency (rank order of transporter binding)” value in assay [2] is recorded as “S > > N > D”. For the same compound, the “Potency Range” value in assay [2] turned out to be 370.

Take `CNC[C@H](c1ccc2ccccc2c1)[C@H](O)c1ccc(F)cc1` [MCJ001-4F—Ph—OH-SS/RR, (1S,2S)-1-(4-fluorophenyl)-3-(methylamino)-2-(naphthalen-2-yl)propan-1-ol]: the dissociation constant (Kd) in assay [1] was determined as 33 ± 5 nM; in assay [3], 11 ± 1 nM; in assay [4], 90 ± 10 nM. Besides, the “Potency (rank order of transporter binding)” value in assay [2] was “N > S > D”. Also, the “Potency Range” value in assay [2] amounted to 8.
